From patent publication US20100021420A1, “COMBINATIONS OF PYRAZOLE DERIVATIVES FOR THE INHIBITION OF CDKS AND GSK'S” (ASTEX THERAPEUTICS LIMITED, priority 2006, published 2010)
One block for each molecule: values may come before it.

Columns and labels:
[1] = tested on: human colon carcinoma cell line HCT 116; assay: Anti-proliferative activity, HCT-116 cell line; assay type: cell-based; conditions: HCT 116 (ECACC No. 91091005)
Text: See Example 15 of WO 2006/077426 at pages 100-101 (which is incorporated herein by reference).

[2] = antitumour agent; cited from earlier work
[3] = Thermogravimetric analysis; assay type: physicochemical
Procedure: Approximately 5 mg of sample (accurately weighed) was placed into a platinum TGA pan and loaded into a TGA 7 gravimetric analyser. The sample under study was then heated at a rate of 10° C./min (from ambient to 300° C.) and the resulting change in weight monitored. A dry nitrogen purge gas at a flow rate of 20 ml/min was used to produce an inert atmosphere and prevent oxidation of the sample during heating. Prior to analysis the instrument was weight calibrated using a 100 mg reference standard and temperature calibrated using an Alumel reference standard (using the Curie point transition temperature).

[4] = Vapour sorption/desorption analysis; assay type: physicochemical
Procedure: Approximately 20 mg of sample was placed into a wire-mesh vapour sorption balance pan and loaded into an ‘IgaSorp’ vapour sorption balance (Hiden Analytical Instruments) held at 25+/−0.1° C. The sample was then dried by maintaining a 0% humidity environment (using mass flow control apparatus) until no further weight change was recorded. Subsequently, the sample was then subjected to a ramping profile from 0-90% relative humidity (% RH) at 10% RH increments, maintaining the sample at each step until equilibration had been attained (99.5% step completion).
Upon reaching equilibration, the % RH within the apparatus was ramped to the next step and the equilibration procedure repeated. After completion of the sorption cycle, the sample was then dried using the same procedure. The weight change during the sorption/desorption cycles was then monitored, allowing for the hygroscopic nature of the sample to be determined.

A2780 cells = assay: IC50 shift assay (combination), A2780 cells; assay type: cell-based
HCT116 cell line = assay: IC50 shift assay (combination), HCT116 cells; assay type: cell-based
[5] = tested on: Human colon carcinoma cell line HT29; assay: IC50 shift assay (combination), HT29 cells; assay type: cell-based; conditions: concurrent 72 hours, camptothecin 24 hours then Compound I 48 hours, or Compound I prior to camptothecin
Procedure: Human colon carcinoma cell line HT29 (ECACC No. 91072201) cells were seeded onto 96-well tissue culture plates at a concentration of 5×10^3 cells/well. Cells were allowed to recover overnight prior to addition of compound(s) or vehicle control (0.2% DMSO) as follows;
Compounds were added according to one of the following schedules; • a) Concurrent for 72 hours. • b) Compound I for 24 hours followed by camptothecin for 48 hours. • c) Camptothecin for 24 hours followed by Compound I for 48 hours.
Following a total of 72 hours compound incubation, Alamar Blue™ was added to a final concentration of 10% (v/v) and incubated at 37° C. for 6 hours. Fluorescent product was quantified by reading at d535/25× (excitation) and d590/20 m (emission) on a Fusion Reader (Perkin Elmer). The IC50 for camptothecin in the presence of varying doses of Compound I was determined.

SkBR3 cell line = assay: IC50 shift assay (combination), SkBR3 cells; assay type: cell-based
[6] = tested on: Acute Promyelocytic Leukemia (APL); conditions: cited from earlier work
OVCAR-3 tumour cells = conditions: in which PKB is amplified, concentrations of 50 and 100 microM; cited from earlier work
PKC = conditions: cited from earlier work
CLL = conditions: initial therapy, symptomatic CLL patients, cited from earlier work
[7] = mice; doses 10 times more than were needed for antitumour activity; cited from earlier work
[8] = tested on: P-glycoprotein-overexpressing subline of leukemic cell line CCRF-CEM; conditions: cited from earlier work

IC50 [1]: < 20 µM
Compound: O=C(NC1CCNCC1)c1n[nH]cc1NC(=O)c1c(Cl)cccc1Cl [Example 1]

Compound: CCN[C@H]1CO[C@@H](O[C@H]2[C@H](O[C@H]3C#C/C=C\C#C[C@]4(O)CC(=O)C(NC(=O)OC)=C3/C4=C\CSSSC)O[C@H](C)[C@@H](NO[C@H]3C[C@H](O)[C@H](SC(=O)c4c(C)c(I)c(O[C@@H]5O[C@@H](C)[C@H](O)[C@@H](OC)[C@H]5O)c(OC)c4OC)[C@@H](C)O3)[C@@H]2O)C[C@@H]1OC [Calicheamicin]
potency relative to adriamycin [2]: over 1,000 times

significant event (thermally induced partial degradation) in TGA plot ([3]; onset prior to the main melt transition): about 288 °C | mass loss (TGA) ([3]; up to 150° C., crystals from Example 5 Step 8): approximately 0.2% | weight loss during initial drying ([4]; 0% RH, 25 °C): approximately 0.01% | total weight increase ([4]; upon equilibration at 90% RH, 25 °C): 0.24%
Compound: CS(=O)(=O)N1CCC(NC(=O)c2n[nH]cc2NC(=O)c2c(Cl)cccc2Cl)CC1 [Set B Example 1, 4-(2,6-dichloro-benzoylamino)-1H-pyrazole-3-carboxylic acid (1-methanesulphonyl-piperidin-4-yl)-amide]
hygroscopicity / hydrate formation ([4]; storage in elevated humidity conditions): physically stable with regard to hygroscopicity

effect of combination with Paclitaxel in IC50 shift assay (A2780 cells; Paclitaxel 24 h followed by Compound I 48 h): synergy | effect of combination with 5-FU in IC50 shift assay (A2780 cells; added concurrently for 72 h): mildly synergistic | effect of combination with Iressa in IC50 shift assay (A2780 cells; added concurrently for 72 h): synergistic | effect of combination with Paclitaxel in IC50 shift assay (A2780 cells; added concurrently for 72 h): Additive | effect of combination with Cisplatin in IC50 shift assay (A2780 cells; concurrently for 72 h or Cisplatin 24 h followed by compound I 48 h): additive | effect of combination with Etoposide in IC50 shift assay (A2780 cells; concurrently for 72 h or Etoposide 24 h followed by compound I 48 h): additive | effect of combination with Gemcitibine in IC50 shift assay (A2780 cells; concurrently for 72 h or Gemcitibine 24 h followed by Compound I 48 h): additive | effect of combination with Vinblastine in IC50 shift assay (A2780 cells; concurrently for 72 h or Vinblastine 24 h followed by compound I 48 h): additive | effect of combination with camptothecin in IC50 shift assay [5]: additive
Compound: O=C(NC1CCNCC1)c1n[nH]cc1NC(=O)c1c(Cl)cccc1Cl [Compound I, 4-(2,6-dichloro-benzoylamino)-1H-pyrazole-3-carboxylic acid piperidin-4-ylamide]
effect of combination with Iressa (synergy) confirmed (HCT116 cell line): confirmed | effect of combination with Iressa (synergy) confirmed (SkBR3 cell line): confirmed

Compound: CC1=C(/C=C/C(C)=C/C=C/C(C)=C/C(=O)O)C(C)(C)CCC1 [Tretinoin]
remissions in APL patients [6]: 64-100%

Compound: O=S(=O)(NCCNCC=C(c1ccccc1)c1ccccc1)c1cccc2cnccc12 [NL-71-101]
apoptosis (OVCAR-3 tumour cells): induced apoptosis | IC50 (PKC): 104 µM

Compound: Nc1nc(F)nc2c1ncn2[C@@H]1O[C@H](CO)[C@@H](O)[C@@H]1O [fludarabine, 9-β-D-arabinofuranosyl-2-fluoro-adenine]
rate of complete responses (CLL; v 3% with alkylator-based therapies): 27% | duration of progression-free survival (CLL; v 17 months with alkylator-based therapies): 33 months

Compound: CCOC(=O)c1ccc2[nH]c3c(OC)c4[nH]c5ccc(C(=O)OCC)cc5c4cc3c2c1 [SR-13668]
adverse effects [7]: no adverse effects

Compound: C/C1=C/C[C@@H](/C(C)=C/c2csc(C)n2)OC(=O)C[C@H](O)C(C)(C)C(=O)[C@H](C)[C@@H](O)[C@@H](C)CCC1 [desoxyepothilone B]
IC50 [8]: 0.017 µM
